Data published in patent US20240287044A1, “SALT OF SELECTIVE FGFR4 INHIBITOR, AND PREPARATION METHOD THEREFOR AND APPLICATION THEREOF” (ZHEJIANG HISUN PHARMACEUTICAL CO., LTD., priority 2021, published 2024).
Where “and” joins values, the source holds several entries; their conditions need not be identical. Identical values can stand only once. Counter-ions that a name gives are not always drawn.

What was measured:
[1] = tested on: hepatocellular carcinoma cells Hep3B; conditions: in vitro, read-out: IC50 value, inhibitory activity against Hep3B; cited from earlier work
[2] = tested on: Hep3B human liver carcinoma subcutaneous transplanted tumor; experiment: Subcutaneous transplantation model of Hep3B human liver carcinoma; type: in vivo, BALB/c nude mice; conditions: for anti-tumor activity (in words): Hep3B model, 50 mg/kg twice a day gavage 10 days
Procedure: Preparation of administration formulation for gavage administration: sorafenib, free-base compounds as represented by formula (I) and its maleate salts, phosphate salts, hydrochloride salts, mesylate salts, and ethanesulfonate salts were accurately weighed respectively, and an appropriate volume of normal saline was added, and then vortex oscillation was performed until mixed well, and the administration formulation was prepared just before use.
BALB/c nude mice, female, purchased from Jiangsu Jicui Pharmacom Biotechnology Co. Licence No.: SCXK (Su) 2019-0009, Animal Qualification Certificate No.: 202102418.
After arrival, animals were required to be kept in the experimental environment for 7 days before starting the experiment. The experimental animals were kept in intelligent independent ventilation cages (IVC) with constant temperature and humidity. The temperature was maintained at 20-26° C. and the humidity was maintained at 40-70%. Under a light-dark cycle of 10 hours light/14 hours dark, the experimental animals were allowed to free access to food and water. The animals were labeled using ear tag.
Establishment of subcutaneous tumor model of Hep3B cell: 0.2 mL of a cell suspension containing 3.5×10^6 Hep3B cells was inoculated subcutaneously on the right side of the back of female BALB/c nude mice aged over 6 weeks to establish a transplant tumor. The diameter of tumor was measured with a vernier caliper, and tumor volume was calculated using the following formula: tumor volume=0.5×a×b^2, where a and b represented the long and short diameter of the tumor, respectively. The tumor-bearing mice were randomly divided into 9 groups and administered according to the experimental design when the average tumor volume was at a range of 200-250 mm^3. Mice in each treatment group and solvent control group were subjected to orally intragastric administration for 10 days. The tumor volume of mice was measured twice weekly, and the body weight was weighed daily. The curative effect was assessed based on the relative tumor growth inhibition (TGI) rate (%), and safety was evaluated according to the change of body weight and mortality of animals.

[3] = Pharmacokinetic study on different salt forms (SD rats); type: in vivo; conditions: 20 mg·kg^−1 single gavage, fasted, 0.5% CMC-Na, plasma
Procedure: After vortex oscillation, ultrasonication was carried out. If necessary, shearing and emulsification or grinding could be carried out until well mixed, to obtain an administration formulation with a concentration of 2 mg· mL^−1.
(§1) Experimental animals were kept in animal rooms, which were well ventilated and equipped with air conditioning, and the temperature was maintained at 20-25° C., humidity at 40%-70%, and light and dark lighting for 12 hours each, and the experimental animals were allowed to eat and drink freely. After normal feeding for about 5 days, rats with good physical condition could be selected for this experiment after examination by a veterinary. Each rat was marked with a tail number.
(§2) The detailed administration regimen of the animal experiment is seen in Table 2. On the day before the experiment, all SD rats were fasted overnight (equal to or more than 12 hours). On the day of the experiment, after weighing, the theoretical administration volume for each rat was calculated according to the following formula. The administration formulation should be prepared on the day of the experiment, and the interval between preparation and administration should not exceed 2 hours. The actual administration amount of each rat and the collection time of the plasma sample should be recorded in detail in the corresponding table. SD rats were allowed to restore eating 4 hours after administration, and were allowed to drink water freely during the experiment.
Before and 0.25, 0.5, 1, 2, 4, 8, 12 and 24 hours after administration, 0.15 mL blood was collected from jugular vein and placed into anticoagulant tubes containing EDTA-K2.
All whole blood samples were subjected to centrifugation for 10 minutes (5500 rpm), and then the plasma was separated and stored in a refrigerator at −30° C. to −10° C.
The corresponding pharmacokinetic parameters were calculated using the […] of Pharsight Phoenix 7.0, and the results are shown in Table 3 below.

[4] = Pharmacokinetics of different salt forms (ICR mice); type: in vivo; conditions: plasma, 75 mg·kg^−1 single gavage, fasted, normal saline
Procedure: After vortex oscillation, ultrasonication was carried out. If necessary, shearing and emulsification or grinding could be carried out until well mixed, to obtain an administration formulation with a concentration of 7.5 mg· mL^−1.
as §1
as §2, with “of the ICR mice experiment is” for “of the animal experiment is”, “in Table 5. On the” for “in Table 2. On the”, “experiment, all ICR mice were fasted” for “experiment, all SD rats were fasted”, “for each mouse was calculated” for “for each rat was calculated”, “corresponding table. ICR mice were allowed” for “corresponding table. SD rats were allowed”
Before and 0.25, 0.5, 1, 2, 4, 8, 10, 12 and 24 hours after administration, 0.15 mL blood was collected from fundus venous plexus and placed into anticoagulant tubes containing EDTA-K2.
All whole blood samples were subjected to centrifugation for 10 minutes (5500 rpm), and then the plasma was separated and stored in a refrigerator at −30 to −10° C.

[5] = day 11 after administration, gavage 10 days, 50 mg/kg twice a day (based on formula (I)), sorafenib 30 mg/kg once a day
[6] = day 11 after administration, gavage 10 days, 50 mg/kg twice a day (based on formula (I)), sorafenib 30 mg/kg once a day, listed as sorafenib

Structure (SMILES) | anti-tumor activity (in words) [2] | AUC0-t [3] [ng·h/mL] | Cmax [3] [ng/mL] | Tmax [3] [h] | tumor volume (x ± S) [2, 5] | T1/2 [3] [h] | also measured
C=CC(=O)Nc1cc(N2CCN(CC)C3(CC3)C2)ccc1Nc1cc(N(C)C(=O)Nc2c(Cl)c(OC)cc(OC)c2Cl)ncn1 [Free base, N-(2-((6-(3-(2,6-dichloro-3,5-dimethoxyphenyl)-1-methylureido)pyrimidin-4-yl)amino)-5-(4-ethyl-4,7-diazaspiro[2.5]octane-7-yl)phenyl) acrylamide] | significant anti-tumor activity | 194.55 | 52.74 | 4.00 |  |  | IC50 [1]: 19 nM; tumor volume (x ± S) ([2]; day 11 after administration, gavage 10 days, 50 mg/kg twice a day (based on formula (I)), sorafenib 30 mg/kg once a day, listed as compound as represented by formula): 314 ± 72 mm^3; tumor volume (x ± S) ([2]; day 11 after administration, gavage 10 days, 50 mg/kg twice a day (based on formula (I)), sorafenib 30 mg/kg once a day, listed as compound as represented by formula (I)): 314 mm^3; half-life ([3]; SD, rat, po, 20 mg/kg): 2.15 h
CNC(=O)c1cc(Oc2ccc(NC(=O)Nc3ccc(Cl)c(C(F)(F)F)c3)cc2)ccn1 [Sorafenib, reference compound] |  |  |  |  | 1238 ± 199 mm^3 |  | T/C (%) relative tumor proliferation rate [2, 5]: 57.10%; TGI (%) relative tumor growth inhibition [2, 5]: 42.90%; relative tumor volume (x ± S) [2, 5]: 5.50 ± 0.22; TGI (%) relative tumor growth inhibition [2, 6]: 42.9%; tumor volume (x ± S) [2, 6]: 1238 mm^3
C=CC(=O)Nc1cc(N2CCN(CC)C3(CC3)C2)ccc1Nc1cc(N(C)C(=O)Nc2c(Cl)c(OC)cc(OC)c2Cl)ncn1 [ethanesulfonate salt] | significant anti-tumor activity | 410.81 | 141.81 | 1.50 | 121 mm^3 and 121 ± 17 mm^3 | 2.37 | AUC0-t ([4]; ICR, mouse, po, 75 mg/kg, read-out: AUC0-t): 9660 ng·h/mL; Cmax ([4]; ICR, mouse, po, 75 mg/kg, read-out: Cmax): 4110 ng/mL; Tmax ([4]; ICR, mouse, po, 75 mg/kg, read-out: Tmax): 0.5 h
C=CC(=O)Nc1cc(N2CCN(CC)C3(CC3)C2)ccc1Nc1cc(N(C)C(=O)Nc2c(Cl)c(OC)cc(OC)c2Cl)ncn1 [mesylate salt] | significant anti-tumor activity | 357.27 | 99.39 | 0.42 | 93 mm^3 and 93 ± 32 mm^3 | 3.01 | AUC0-t [4]: 8660 ng·h/mL; Cmax [4]: 3740 ng/mL; T1/2 [4]: 1.78 h; Tmax [4]: 0.250 h
